The source of these data is patent US20200079765A1, “SUBSTITUTED HETEROARYL PYRROLONES AND SALTS THEREOF AND USE THEREOF AS HERBICIDAL ACTIVE SUBSTANCES” (Bayer CropScience Aktiengesellschaft, priority 2016, published 2020).

For assay [1], the system named is Poa annua. The experiment in a line: Herbicidal pre-emergence action (Experimental Part 2, D). Format: in vivo. As to conditions: pre-emergence (Part 2), application rate 320 g/ha, scored visually after about 3 weeks. The source says: (§1) Seeds of mono- and dicotyledonous weed plants were placed in plastic pots in sandy loam soil (doubly sown with in each case one species of mono- or dicotyledonous weed plants per pot) and covered with soil. The compounds of the invention, formulated in the form of wettable powders (WP) or as emulsion concentrates (EC), were then applied onto the surface of the covering soil as aqueous suspension or emulsion with addition of 0.5% additive at a water application rate of 600 liters per hectare (converted). After the treatment, the pots are placed in a greenhouse and kept under good growth conditions for the trial plants. After about 3 weeks, the effect of the preparations was scored visually in comparison with untreated controls as percentages. For example, 100% activity=the plants have died, 0% activity=like control plants. Tables D1 to D8 below show the effects of selected compounds of the general formula (I) according to Tables I.1 to I.116 on various harmful plants and an application rate corresponding to 1280 g/ha or 320 g/ha, which were obtained by the experimental procedure mentioned above.

Assay [2] concerns Stellaria media. The assay is described as above. Type of assay: in vivo. To be noted: pre-emergence (Part 2), application rate 320 g/ha, scored visually after about 3 weeks.
Description: as §1

The subject of assay [3] is Lolium rigidum. Described as above. Type of assay: in vivo. To be noted: pre-emergence (Part 2), scored visually after about 3 weeks.
Description: as §1

The subject of assay [4] is Abutilon theophrasti. Described as above. Type of assay: in vivo. To be noted: pre-emergence (Part 2), application rate 320 g/ha, scored visually after about 3 weeks.
Description: as §1

Assay [5] deals with Matricaria inodora. The description is as above. Type of assay: in vivo. As to conditions: pre-emergence (Part 2), application rate 320 g/ha, scored visually after about 3 weeks.
Description: as §1

The test system of assay [6] is Setaria viridis. Described as above. Type of assay: in vivo. To be noted: pre-emergence (Part 2), scored visually after about 3 weeks.
Description: as §1

The test system of assay [7] is Amaranthus retroflexus. The assay is described as above. Type of assay: in vivo. To be noted: pre-emergence (Part 2), application rate 320 g/ha, scored visually after about 3 weeks.
Description: as §1

Assay [8] relates to Echinochloa crus-galli. Described as above. Type of assay: in vivo. As to conditions: pre-emergence (Part 2), application rate 320 g/ha, scored visually after about 3 weeks.
Description: as §1

Another assay concerns the target T1, photosystem II (PS II) (Spinacia oleracea, UniProt P69560).
T1 construct: the chloroplasts were osmotically ruptured and the thylakoid membranes were then obtained by centrifugation; from tissue; host or cells: thylakoid membranes from fresh spinach leaves
The experiment in a line: Measurement of the PS II activity in thylakoid membranes (DCPIP reduction, Experimental Part 3, Table E1). As to conditions: spinach thylakoid membranes. Format: biochemical. The method, then:
Cooled fresh spinach leaves were comminuted and homogenized in 50 mM phosphate buffer, pH 6.8. 10 mM KCl, 0.34 M sucrose (sucrose buffer) (blender, 1 g of plant material/ml). The homogenate was subsequently filtered through 4 layers of Miracloth and the chloroplasts were isolated by centrifugation, i.e. 10 min of centrifugation at 4400×g (4° C.). The sediment was suspended in 25 ml of sucrose buffer and re-centrifuged for 10 min at 4400×g (4° C.). The sediment was then suspended in 40 ml of 50 mM phosphate buffer, pH 6.8, 10 mM KCl, without sucrose. In this step, the chloroplasts were osmotically ruptured and the thylakoid membranes were then obtained by centrifugation (10 min, 4400×g, 4° C.). The membrane sediment was finally suspended in about 20 ml of 50 mM phosphate buffer, pH 6.8, 10 mM KCl. Following protein determination and activity determination, the membrane suspension was divided into aliquots and frozen in liquid nitrogen. The aliquots were stored at −80° C. Under these conditions, the photosystem II preparation was storage stable for at least three months. The activity determination of photosystem II (PS II) was then carried out using the following test principle: The electron transfer from PS II to an artificial electron acceptor, 2,6-dichlorophenolindophenol (DCPIP), was measured with exposure to light. The concentration of the blue oxidized form of DCPIP was determined spectrophotometrically at wavelength λ=595 nm. […] The activity determination was carried out in microtiter plates (96 cavities) in a reaction volume of 200 μl. Here, 155 μl of dilute membrane suspension were initially charged in 50 mM of phosphate buffer, pH 6.8, 10 mM KCl. Depending on the activity of the PS II preparation, the dilution was adjusted such that the measurement of the decrease in absorption (λ=595 nm) was linear for at least 10 min. In each case 5 μl solution of the test compounds of a concentration of 100 μM in DMSO were added to the enzyme suspension; controls contained 5 μl DMSO; the final concentration of DMSO in the reaction batch was thus 2.5% (v/v); this concentration had no adverse effect on the enzymatic activity. On each microtiter plate, a known PS II inhibitor, for example metribuzin, was used as standard, which allowed the quality of the PS II test to be assessed. The reaction was started by addition of 40 μl DCPIP solution (600 μM in distilled water); the final concentration of DCPIP was 120 μM. Measurement of absorption was carried out over a period of 10 min at 22° C. and with exposure to light. Using metribuzin as comparative substance, the results for the efficacy of the compounds of the general formula (I) at 100 μM are stated in the table below using the following classification: ++++ (inhibition≥90%), +++ (90%>inhibition≥70%), ++ (70%>inhibition≥50%), + (50%>inhibition≥30%).
Effects of selected compounds of the general formula (I) according to the following table E1: […]

Assay [9] concerns Poa annua. As to the kind of experiment: Herbicidal post-emergence action (Experimental Part 2, C). Format: in vivo. To be noted: post-emergence (Part 2), application rate 320 g/ha, rated visually after about 3 weeks. The protocol: (§2) Seeds of mono- and dicotyledonous weed plants were placed in plastic pots in sandy loam soil (doubly sown with in each case one species of mono- or dicotyledonous weed plants per pot), covered with soil and cultivated in a greenhouse under controlled growth conditions. 2 to 3 weeks after sowing, the test plants were treated at the one-leaf stage. The compounds of the invention, formulated in the form of wettable powders (WP) or as emulsion concentrates (EC), were applied onto the green parts of the plants as aqueous suspension or emulsion with addition of 0.5% additive at a water application rate of 600 liters per hectare (converted). After the test plants had been kept in the greenhouse under optimum growth conditions for about 3 weeks, the activity of the preparations was rated visually in comparison to untreated controls. For example, 100% activity=the plants have died, 0% activity=like control plants. Tables C1 to C8 below show the effects of selected compounds of the general formula (I) according to Tables I.1 to I.116 on various harmful plants and an application rate corresponding to 1280 g/ha or 320 g/ha, which were obtained by the experimental procedure mentioned above.

Assay [10] has as its system Stellaria media. Described as above. Type of assay: in vivo. To be noted: post-emergence (Part 2), application rate 320 g/ha, rated visually after about 3 weeks. The method, then: as §2
The test system of assay [11] is Lolium rigidum. The description is as above. To be noted: post-emergence (Part 2), rated visually after about 3 weeks. Format: in vivo. The method, then:
as §2

In assay [12] the test system is Abutilon theophrasti. Described as above. Type of assay: in vivo. As to conditions: post-emergence (Part 2), application rate 320 g/ha, rated visually after about 3 weeks. The method, then: as §2
Assay [13] relates to Matricaria inodora. The description is as above. Type of assay: in vivo. As to conditions: post-emergence (Part 2), application rate 320 g/ha, rated visually after about 3 weeks. The method, then:
as §2

The subject of assay [14] is Setaria viridis. The assay is described as above. Format: in vivo. As to conditions: post-emergence (Part 2), application rate 320 g/ha, rated visually after about 3 weeks. The method, then: as §2
Assay [15] deals with Amaranthus retroflexus. The assay is described as above. Format: in vivo. As to conditions: post-emergence (Part 2), application rate 320 g/ha, rated visually after about 3 weeks. The method, then:
as §2

Assay [16] deals with Echinochloa crus-galli. The assay is described as above. To be noted: post-emergence (Part 2), rated visually after about 3 weeks. Format: in vivo. The method, then:
as §2

On to `CC1=CC(O)N(c2cc(C(C)(C)C)on2)C1=O` (stereo not drawn) [I.2-162, 5-hydroxy-3-methyl-1-(5-tert-butyl-1,2-isoxazol-3-yl)-1,5-dihydro-2H-pyrrol-2-one], for which the “Poa Annua, herbicidal activity” value in the assay on Poa annua [1] and in the assay on Poa annua [9] was 100% in each case. Moreover, the “Stellaria media, herbicidal activity” value with Stellaria media [2] and in the assay on Stellaria media [10] was 100% in each case. The “Lolium rigidum, herbicidal activity” value with Lolium rigidum [3] (application rate 320 g/ha) and in the assay with Lolium rigidum [11] (application rate 320 g/ha) was 90% throughout. For the same molecule, the “Abutilon theophrasti, herbicidal activity” value (“Abutilon theophrasti” for short) with Abutilon theophrasti [4] and in the assay on Abutilon theophrasti [12] was 100% each time. Besides, the “Matricaria inodora, herbicidal activity” value in the assay on Matricaria inodora [5] and with Matricaria inodora [13] was 100% each time. Besides, the “Setaria viridis, herbicidal activity” value with Setaria viridis [6] (application rate 320 g/ha) and in the assay with Setaria viridis [14] was 100% throughout. Also, the “Amaranthus retroflexus, herbicidal activity” value (“Amaranthus retroflexus” for short) in the assay on Amaranthus retroflexus [7] and with Amaranthus retroflexus [15] was 100% in each case. The “Echinochloa crus-galli, herbicidal activity” value (shortened to “Echinochloa crus-galli”) in the assay with Echinochloa crus-galli [8] and with Echinochloa crus-galli [16] (application rate 320 g/ha) was 100% throughout. For the same molecule, the “Effect (inhibition of PS II activity)” value on photosystem II (PS II) was “++++ (inhibition≥90%)”.

Turning to `CC1=CC(O)N(c2noc(C(C)(C)C)c2C)C1=O` (stereo not drawn) [I.2-177], the “Poa Annua, herbicidal activity” value with Poa annua [1] and in the assay with Poa annua [9] was 100% in each case. The “Stellaria media, herbicidal activity” value in the assay with Stellaria media [2] and in the assay with Stellaria media [10] was 100% in each case. Further, the “Lolium rigidum, herbicidal activity” value with Lolium rigidum [3] (application rate 320 g/ha) and with Lolium rigidum [11] (application rate 320 g/ha) was 90% throughout. The “Abutilon theophrasti” value in the assay on Abutilon theophrasti [4] and in the assay with Abutilon theophrasti [12] was 100% in each case. Moreover, the “Matricaria inodora, herbicidal activity” value with Matricaria inodora [5] and with Matricaria inodora [13] was 100% in each case. Also, the “Setaria viridis, herbicidal activity” value with Setaria viridis [6] (application rate 320 g/ha) is 100%. Moreover, the “Amaranthus retroflexus” value in the assay with Amaranthus retroflexus [7] is given as 90%; in the assay on Amaranthus retroflexus [15], 100%. Also, the “Echinochloa crus-galli” value with Echinochloa crus-galli [8] and with Echinochloa crus-galli [16] (application rate 320 g/ha) was 100% throughout. At photosystem II (PS II), the “Effect (inhibition of PS II activity)” value is “++++ (inhibition≥90%)”.

Consider `CC1=CC(O)N(c2cc(C(C)(C)C)no2)C1=O` (stereo not drawn) [I.2-290, 5-hydroxy-3-methyl-1-(3-tert-butyl-1,2-isoxazol-5-yl)-1,5-dihydro-2H-pyrrol-2-one], for which the “Poa Annua, herbicidal activity” value in the assay with Poa annua [1] and in the assay on Poa annua [9] was 100% throughout. Besides, the “Stellaria media, herbicidal activity” value in the assay with Stellaria media [2] and in the assay on Stellaria media [10] was 100% throughout. Moreover, the “Lolium rigidum, herbicidal activity” value with Lolium rigidum [3] (application rate 1280 g/ha) and with Lolium rigidum [11] (application rate 1280 g/ha) was 100% throughout. For the same molecule, the “Abutilon theophrasti” value in the assay on Abutilon theophrasti [4] and with Abutilon theophrasti [12] was 100% throughout. Moreover, the “Matricaria inodora, herbicidal activity” value in the assay on Matricaria inodora [5] and in the assay on Matricaria inodora [13] was 100% throughout. For the same molecule, the “Setaria viridis, herbicidal activity” value in the assay on Setaria viridis [6] (application rate 1280 g/ha) and in the assay on Setaria viridis [14] was 100% in each case. In addition, the “Amaranthus retroflexus” value in the assay on Amaranthus retroflexus [7] and in the assay with Amaranthus retroflexus [15] was 100% throughout. The “Echinochloa crus-galli” value in the assay with Echinochloa crus-galli [8] and in the assay with Echinochloa crus-galli [16] (application rate 1280 g/ha) was 100% throughout. On photosystem II (PS II), the “Effect (inhibition of PS II activity)” value is reported as “++++ (inhibition≥90%)”.

`CCC(=O)OC1C=C(C)C(=O)N1c1cc(C(C)(C)C)no1` (stereo not drawn) [I.6-290]: the “Poa Annua, herbicidal activity” value with Poa annua [1] and in the assay on Poa annua [9] was 100% in each case. Further, the “Stellaria media, herbicidal activity” value with Stellaria media [2] and in the assay with Stellaria media [10] was 100% in each case. For the same molecule, the “Lolium rigidum, herbicidal activity” value with Lolium rigidum [3] (application rate 320 g/ha) and in the assay with Lolium rigidum [11] (application rate 1280 g/ha) was 90% each time. Also, the “Abutilon theophrasti” value in the assay on Abutilon theophrasti [4] and with Abutilon theophrasti [12] was 100% each time. The “Matricaria inodora, herbicidal activity” value with Matricaria inodora [5] and with Matricaria inodora [13] was 100% each time. The “Setaria viridis, herbicidal activity” value in the assay on Setaria viridis [6] (application rate 320 g/ha) amounted to 90%; in the assay on Setaria viridis [14] it was 100%. In addition, the “Amaranthus retroflexus” value in the assay on Amaranthus retroflexus [7] and in the assay on Amaranthus retroflexus [15] was 100% in each case. Besides, the “Echinochloa crus-galli” value came to 90% in the assay on Echinochloa crus-galli [8] and 100% with Echinochloa crus-galli [16] (application rate 1280 g/ha).
